Columns and labels:
[1] = system: MCF-7 cells; experiment: Light and fluorescent (AO/PI) microscopic observation; type: cell-based, human; conditions: MCF-7, 8.2 µM of BHMC, 48 h
Experimental: (§1) MCF-7 cells were seeded at 0.8 × 10^5 cells/mL in a 6-well plate and left overnight in a CO2 incubator set at 37 °C. […] Untreated control was prepared simultaneously. After 24, 48, or 72 h of incubation, the cell was harvested using TrypLE (Gibco Thermo Fisher Scientific, Waltham, MA, USA), washed with phosphate buffer saline (PBS), and subjected to the following assays. All assays were tested with three biological replicates.
Morphology of control and BHMC-treated MCF-7 cells was observed under light microscope (Nikon, Minato City, Japan). For fluorescent microscope observation, control and BHMC-treated MCF-7 cells (2 × 10^5 cells) were stained with 10 μL of 100 μg/mL acridine orange (AO) and 100 μg/mL propidium iodide (PI) for 10 min. After that, the cells were washed and examined under fluorescent microscope (Nikon FC-35DX, Minato City, Japan) using an excitation filter and barrier filter at 450–490 nm and long pass filter of 520 nm.

[2] = system: MCF-7 cells; experiment: Flow cytometry Annexin V apoptosis detection; type: cell-based, human; conditions: MCF-7, Annexin V/7ADD
Experimental: as §1
Cell apoptosis assay was conducted based on a study method with some changes. […] In brief, harvested cells were washed and re-suspended in 100 µL of PBS. […] Approximately, 10,000 cells in the population were captured. The experiment was qualitatively repeated for three times.

[3] = system: MCF-7 cells; experiment: miRNA microarray analysis; type: cell-based, human
Experimental: (§2) Total RNAs including small RNAs were isolated from MCF-7 treated with BHMC using miRNeasy kit (Qiagen, Hilden, Germany) according to manufacturer’s instructions. The quality of extracted RNA was assessed by the NanoDrop-1000 Spectrophotometer (NanoDrop Technologies Inc., Wilmington, DE, USA) and Agilent 2100 Bioanalyzer, and samples with A260/A280 ratio between 1.8 to 2.1 and an RIN value of 8 and above was used for further analysis.
Total RNA (8 µL) of control and BHMC-treated MCF-7 cells was directly labelled using Flash Tag Biotin HSR Labeling kits (Affymetrix, Santa Clara, CA, USA) in accordance with the instructions of the manufacturer. RNA was heated to 80 °C for 10 min before labeling to inactivate any residual DNase activity. RNA was hybridized for 42 h to the GeneChip miRNA 2.0 array (Affymetrix, Santa Clara, CA, USA). The GeneChip miRNA 2.0 arrays contain 100% miRBase version 15 coverage of 131 organisms and contain probes for 3439 humans non-coding RNAs (ncRNAs), including 1105 miRNAs and 2334 other ncRNAs (including scaRNAs and snoRNAs). Washing and staining were automatically performed using the Affymetrix Fluidics Station 450 (Affymetrix, Santa Clara, CA, USA), and probe intensities were measured using the GeneChip® Scanner (Affymetrix, Santa Clara, CA, USA).
Data discussed in this publication have been deposited in the NCBI Gene Expression Omnibus and are accessible through the GEO Series accession number GSE155467. Using the gene expression workflow in Partek Genomics Suite software (Cat 4462922G, Partek Inc., St. Louis, MO, USA), the CEL files generated by the Affymetrix data file were converted into .nFMT files. […] Differentially expressed miRNAs (>5-fold change, p < 0.05) were identified using analysis of variance (ANOVA) analysis.

[4] = system: MDA-MB-231 cells; experiment: MTT cell viability assay, MDA-MB-231; type: cell-based, human; conditions: for IC50: Homo sapiens, MDA-MB-231, MTT
Experimental: (§3) The MTT cell viability assay for MCF-7, MDA-MB-231 and MCF 10A cells were conducted according to a previously reported protocol. MCF-7, MDA-MB-231, and MCF-10A were seeded in a 96-well plate at a concentration of 0.8 × 10^5 cells/mL and left overnight in a CO2 incubator set at 37 °C. Then, BHMC with 2-fold dilution ranging between 180 and 3 µM was added to the respective cell lines while the last row of the 96-well plate served as untreated control cells. After 24, 48, and 72 h of incubation, 20 µL of 5 mg/mL MTT solution was added to all wells and the plate was further incubated for three hours. Then, 180 µL of supernatant was carefully discarded and added with 100 µL of DMSO to solubilize the purple crystals. Optical density was measured at 570 nm wavelength using ELISA Reader (Bio-tek Instrument, Winooski, Vermont, USA). The percentage of cell viability was calculated following deduction of the blank cell absorbance using the formula (Equation (1)):(1) Cell viability % =Absorbance of treated cells/Absorbance of untreated control× 100%
(§4) The dose–response curve was plotted, and the concentration that yields 50% inhibition of cell growth (IC50) was obtained as a parameter for cytotoxicity. Starting from this point, BHMC with IC50 value was used throughout the study to induce cell death. On the other hand, selectivity index (SI) was obtained by using the following formula (Equation (2)):(2) Selectivity index SI =IC50 of MCF−10A/IC50 of MCF−7 or MDA−MB−231

[5] = system: MCF-7 cells; experiment: Flow cytometry cell cycle analysis; type: cell-based, human; conditions: MCF-7, BHMC at IC50 (8.2 µM in figure; 12.50 µM in methods)
Experimental: as §1
Cell cycle progression of control and BHMC-treated MCF-7 cells was evaluated by staining with BD Cycletest Plus kit (Becton Dickinson, Franklin Lakes, NJ, USA) and subjected to BD FACS Calibur flow cytometer (Becton Dickinson, USA) analysis. In brief, harvested cells were incubated with 250 µL of trypsin buffer for 10 min followed by addition of 200 µL of trypsin inhibitor containing RNase buffer. After 10 min of incubation, the samples were finally stained with 200 µL of PI solution. Flow cytometer analysis was carried out after 10 min of incubation with the PI stain solution. A minimum of 10,000 cells in the population was captured. Three independent experiments were repeated with similar parameter.

[6] = system: MCF-7 cells; experiment: MTT cell viability assay, MCF-7; type: cell-based, human; conditions: for IC50: Homo sapiens, MCF7, MCF-7, MTT
Experimental: as §3, §4

[7] = system: MCF-7 cells; experiment: Real-time quantitative PCR of mRNA expression (SNAIL, VEGF); type: cell-based, human; conditions: qPCR, BHMC-treated vs untreated MCF-7
Experimental: as §2
Real-time quantitative PCR was performed on SNAIL and VEGF, which were the target of miR-30a and miR-3195 [31]. One microgram (μg) of total RNA was reverse transcripted using the QuantiTect Reverse Transcription Kit (Qiagen, USA) according to the manufacturer protocol. Primers were designed using Primer-Blast (Table 2) and synthesized commercially. NEXpro qPCR Evagreen Master Mix (NEX Diagnostics, Gyeonggi-do, Korea) was used to perform the mRNA qPCR based on the manufacturer protocol. The qPCR system CFX96 (BioRad, USA) was used and the qPCR conditions were: 50 °C for 2 min, 95 °C for 10 min, and 40 cycles of 95 °C for 15 s, and 60 °C for 1 min. A final melting curve was performed to ensure that only one amplicon was present. The relative amounts of mRNAs were normalized against reference gene beta-actin (ACTB) as described previously and the fold change for each mRNA was calculated by the 2^−ΔΔCt method.

[8] = system: MCF-10A cells; experiment: MTT cell viability assay, MCF-10A; type: cell-based; conditions: Homo sapiens
Experimental: as §3, §4

[9] = system: MCF-7 cells; experiment: Real-time quantitative PCR of miRNAs expression; type: cell-based, human; conditions: qPCR, BHMC-treated vs untreated MCF-7
Experimental: as §2
One microgram (μg) of total RNA was used in reverse transcription and the process was conducted using the miScript II RT Kit (Qiagen/SABiosciences, Hilden, Germany) according to the manufacturer protocol. Quantitative RT-PCR was carried out using CFX96 (BioRad, Hercules, CA, USA). […] The miRNA-specific primers for miR-3195, miR-30a, miR-6813-5p, and miR-6132 were designed by miRprimer and commercially synthesized as listed in Table 3. The expression of putative miRNAs was evaluated using geNorm algorithms. PCR reactions were performed in triplicate for each sample. The relative amounts of miRNAs were normalized against reference miRNAs and the fold change for each miRNA was calculated by the 2^−ΔΔCt method.

[10] = IC50 of MCF-10A / IC50 of MDA-MB-231, 24 h
[11] = IC50 of MCF-10A / IC50 of MDA-MB-231, 48 h
[12] = IC50 of MCF-10A / IC50 of MDA-MB-231, 72 h
[13] = IC50 of MCF-10A / IC50 of MCF-7, 24 h
[14] = IC50 of MCF-10A / IC50 of MCF-7, 48 h
[15] = IC50 of MCF-10A / IC50 of MCF-7, 72 h

SMILES: COc1cc(/C=C2\CCC/C(=C\c3ccc(O)c(OC)c3)C2=O)ccc1O [BHMC, (2E,6E)-2,6-bis-(4-hydroxy-3-methoxybenzylidene)-cyclohexanone]
- morphological changes, light microscope [1]: reduced the MCF-7 cells number and severely distorted the MCF-7 cells shape
- morphology, acridine orange and propidium iodide fluorescent microscopy [1]: presented the morphological characteristics of apoptotic cells
- Early apoptotic cells ([2]; BHMC at IC50, 24 h): 10.34%
- Late apoptotic/necrotic cells ([2]; BHMC at IC50, 24 h): 8.81%
- Early apoptotic cells ([2]; BHMC at IC50, 72 h): 43.44%
- Late apoptotic/necrotic cells ([2]; BHMC at IC50, 72 h): 38.22%
- downregulation of miR-6813-5p, miR-6132, miR-4725-3p, miR-1587, miR-6779-5p ([3]; BHMC-treated MCF-7): at least 30 folds
- upregulation of top five overexpressed miRNAs (miR-184, miR-3195, miR-149-5p, miR-30a-3p, miR532-3p) ([3]; BHMC-treated MCF-7): at least 10 folds
- hsa-miR-30a-3p Upregulated Fold Change ([3]; BHMC-treated vs control MCF-7): 12.9
- hsa-miR-149-5p Upregulated Fold Change ([3]; BHMC-treated vs control MCF-7): 13.06
- hsa-miR-184 Upregulated Fold Change ([3]; BHMC-treated vs control MCF-7): 17.58
- hsa-miR-532-3p Upregulated Fold Change ([3]; BHMC-treated vs control MCF-7): 11.73
- hsa-miR-1587 Downregulated Fold Change ([3]; BHMC-treated vs control MCF-7): −35.89
- hsa-miR-3195 Upregulated Fold Change ([3]; BHMC-treated vs control MCF-7): 16.21
- hsa-miR-4725-3p Downregulated Fold Change ([3]; BHMC-treated vs control MCF-7): −41.51
- hsa-miR-6132 Downregulated Fold Change ([3]; BHMC-treated vs control MCF-7): −61.96
- hsa-miR-6779-5p Downregulated Fold Change ([3]; BHMC-treated vs control MCF-7): −33.07
- hsa-miR-6813-5p Downregulated Fold Change ([3]; BHMC-treated vs control MCF-7): −71.82
- IC50 ([4]; 24 h): 29.4 ± 3.15 µM
- IC50 ([4]; 48 h): 20.1 ± 1.94 µM
- IC50 ([4]; 72 h): 19.7 ± 3.14 µM
- SI MCF10A/MDA-MB-231 [4, 10]: 6.14
- SI MCF10A/MDA-MB-231 [4, 11]: 5.38
- SI MCF10A/MDA-MB-231 [4, 12]: 5.00
- selectivity index (SI) MDA-MB-231 against MCF-10A ([4]; summary over 24, 48 and 72 h): > 5
- percentage of cells at G2/M phase ([5]; 24 h): 24.26%
- percentage of cells at Sub G0/G1 phase ([5]; 24 h): 6.64%
- percentage of cells at Sub G0/G1 phase ([5]; 72 h): 22.80%
- IC50 ([6]; 24 h): 23.5 ± 2.41 µM
- IC50 ([6]; 48 h): 12.5 ± 1.87 µM
- IC50 ([6]; 72 h): 11 ± 1.33 µM
- SI MCF10A/MCF7 [6, 13]: 7.66
- SI MCF10A/MCF7 [6, 14]: 8.64
- SI MCF10A/MCF7 [6, 15]: 8.96
- selectivity index (SI) MCF-7 against MCF-10A ([6]; summary over 24, 48 and 72 h): > 7
- SNAIL mRNA expression [7]: downregulated
- VEGF mRNA expression [7]: downregulated
- IC50 ([8]; 24 h): 180 ± 3.11 µM
- IC50 ([8]; 48 h): 108 ± 2.15 µM
- IC50 ([8]; 72 h): 98.4 ± 3.22 µM
- miR-30a-3p expression increment [9]: at least 5 fold
- miR-3195 expression increment [9]: at least 5 fold
- miR-6132 downregulation [9]: at least 10 folds
- miR-6813-5p downregulation [9]: at least 10 folds

SMILES: COc1cc(/C=C/C(=O)CC(=O)/C=C/c2ccc(O)c(OC)c2)ccc1O [Curcumin, reference compound]
- IC50 ([4]; 24 h): 32 ± 2.81 µM
- IC50 ([4]; 48 h): 26 ± 2.33 µM
- IC50 ([4]; 72 h): 23 ± 2.15 µM
- SI MCF10A/MDA-MB-231 [4, 10]: 5.88
- SI MCF10A/MDA-MB-231 [4, 11]: 4.31
- SI MCF10A/MDA-MB-231 [4, 12]: 4.35
- IC50 ([6]; 24 h): 55.7 ± 2.77 µM
- IC50 ([6]; 48 h): 45.1 ± 2.12 µM
- IC50 ([6]; 72 h): 39.8 ± 1.51 µM
- SI MCF10A/MCF7 [6, 13]: 3.37
- SI MCF10A/MCF7 [6, 14]: 2.48
- SI MCF10A/MCF7 [6, 15]: 2.51
- IC50 ([8]; 24 h): 188 ± 4.52 µM
- IC50 ([8]; 48 h): 112 ± 4.57 µM
- IC50 ([8]; 72 h): 100 ± 4.31 µM

Reference: PMC7956517, “Induction of Apoptosis and Regulation of MicroRNA Expression by (2E,6E)-2,6-bis-(4-hydroxy-3-methoxybenzylidene)-cyclohexanone (BHMC) Treatment on MCF-7 Breast Cancer Cells” (Molecules, 2021)
